Measurements reported in US4517007A, “Phosphoroamide urease inhibitors and urease inhibited urea based fertilizer compositions” (Allied Corporation, priority 1983, dated 1985).

Tested on: urease
Assay: Urease Inhibition Efficacy Test in soil (urea remaining after incubation)
Assay type: biochemical
Conditions: 800 micrograms test compound and 42.8 mg urea on 20 g air-dry Cazenovia silt loam, pH 7.0; incubated at 25° C. for three days; run in triplicate
Method: Efficacy tests were conducted to evaluate the efficacy of representative compounds as urease inhibitors. The inhibition tests were run in a New York soil (Cazenovia silt loam, pH 7.0). Evaluations (run in triplicate) consisted of applying 800 micrograms of the test compound in 5 mL of water and 42.8 mg of urea in 1 mL of water to 20 g of air-dry soil in a glass bottle. The bottle was capped with perforated aluminum foil and incubated at 25° C. for three days prior to extraction with 100 mL of a 2M KCl solution containing 0.5 mg of phenylmercuric acetate. The extracts were then analyzed for remaining urea using an autoanalyzer. Percent inhibition was calculated as [formula] where A is urea recovered from an unincubated sample (urea added to soil and immediately extracted); B is urea recovered from an inhibited sample; and C is urea recovered from the control (uninhibited sample).

Q: Which “% Inhibition 40 micrograms per gram Cazenovia soil” value does the source give for `NP(N)(=O)Oc1cccc2c1OP(N)(=O)O2` (stereo not drawn) [Experiment 2] here?
A: 5%

Q: Which “% Inhibition 40 micrograms per gram Cazenovia soil” value does the source give for `NP1(=O)Oc2ccccc2O1` [Experiment 1] here?
A: 54%

Q: For `NP(N)(=O)Oc1ccc2c(c1)OP(N)(=O)O2` (stereo not drawn) [Experiment 3], which “% Inhibition 40 micrograms per gram Cazenovia soil” value is on record?
A: 21%
